# Measured values published in ChEMBL document CHEMBL5230103, “Hydroxamic acid hybrids as the potential anticancer agents: An Overview” (Eur J Med Chem, 2020).
# Assays:
# [1] = biological target: Histone deacetylase 2 (Homo sapiens, UniProt Q92769); assay: Inhibition of HDAC2 (unknown origin)
# [2] = Cytotoxicity against human MCF-10A cells; assay type: toxicity, cell-based
# [3] = Selectivity index, ratio of IC50 for cytotoxicity against human BEAS-2B cells to IC50 for cytotoxicity against human MDA-MB-231 cells; assay type: toxicity, cell-based; conditions: BEAS-2B cells and MDA-MB-231 cells, read-out: Ratio IC50
# [4] = Selectivity index, ratio of IC50 for cytotoxicity against human MCF-10F cells to IC50 for cytotoxicity against human MCF7 cells; assay type: toxicity, cell-based; conditions: MCF-10F cells and MCF7 cells, read-out: Ratio IC50
# [5] = Cytotoxicity against human BEAS-2B cells; assay type: toxicity, cell-based
# [6] = biological target: Histone deacetylase 1 (Homo sapiens, UniProt Q13547); assay: Inhibition of HDAC1 (unknown origin)
# [7] = Selectivity index, ratio of IC50 for cytotoxicity against human MCF-10A cells to IC50 for cytotoxicity against human A549 cells; assay type: toxicity, cell-based; conditions: MCF-10A cells and A549 cells, read-out: Ratio IC50
# [8] = Selectivity index, ratio of IC50 for cytotoxicity against human MCF-10F cells to IC50 for cytotoxicity against human A549 cells; assay type: toxicity, cell-based; conditions: MCF-10F cells and A549 cells, read-out: Ratio IC50
# [9] = tested on: A549; assay: Potency index, ratio of vorinostat IC50 to test compound IC50 for cytotoxicity against human A549 cells assessed as inhibition of cell growth by MTT assay; assay type: functional
# [10] = biological target: Histone deacetylase 8 (Homo sapiens, UniProt Q9BY41); assay: Inhibition of HDAC8 (unknown origin)
# [11] = tested on: MCF7; assay: Cytotoxicity against human MCF7 cells assessed as inhibition of cell growth by MTT assay; assay type: functional, cell-based
# [12] = Selectivity index, ratio of IC50 for cytotoxicity against human MCF-10F cells to IC50 for cytotoxicity against human MDA-MB-231 cells; assay type: toxicity, cell-based; conditions: MCF-10F cells and MDA-MB-231 cells, read-out: Ratio IC50
# [13] = tested on: MDA-MB-231; assay: Potency index, ratio of vorinostat IC50 to test compound IC50 for cytotoxicity against human MDA-MB-231 cells assessed as inhibition of cell growth by MTT assay; assay type: functional
# [14] = tested on: MDA-MB-231; assay: Antitumor activity against human MDA-MB-231 cells xenografted in mouse assessed as reduction on tumor volume at 20 mg/kg, ip relative to control; assay type: functional; parameters: scale not given: the % may be the effect or the level left
# [15] = Selectivity index, ratio of IC50 for cytotoxicity against human MCF-10A cells to IC50 for cytotoxicity against human MDA-MB-231 cells; assay type: toxicity, cell-based; conditions: MCF-10A cells and MDA-MB-231 cells, read-out: Ratio IC50
# [16] = Cytotoxicity against human MCF-10F cells; assay type: toxicity, cell-based
# [17] = tested on: MCF7; assay: Potency index, ratio of vorinostat IC50 to test compound IC50 for cytotoxicity against human MCF7 cells assessed as inhibition of cell growth by MTT assay; assay type: functional
# [18] = Selectivity index, ratio of IC50 for cytotoxicity against human MCF-10A cells to IC50 for cytotoxicity against human MCF7 cells; assay type: toxicity, cell-based; conditions: MCF-10A cells and MCF7 cells, read-out: Ratio IC50
# [19] = tested on: MDA-MB-231; assay: Cytotoxicity against human MDA-MB-231 cells assessed as inhibition of cell growth by MTT assay; assay type: functional, cell-based
# [20] = Selectivity index, ratio of IC50 for cytotoxicity against human BEAS-2B cells to IC50 for cytotoxicity against human A549 cells; assay type: toxicity, cell-based; conditions: BEAS-2B cells and A549 cells, read-out: Ratio IC50
# [21] = Selectivity index, ratio of IC50 for cytotoxicity against human BEAS-2B cells to IC50 for cytotoxicity against human MCF7 cells; assay type: toxicity, cell-based; conditions: BEAS-2B cells and MCF7 cells, read-out: Ratio IC50
# [22] = biological target: T1, Protein deacetylase HDAC6 (Homo sapiens, UniProt Q9UBN7); assay: Inhibition of HDAC6 (unknown origin)
# T1 sequence (Q9UBN7 whole entry): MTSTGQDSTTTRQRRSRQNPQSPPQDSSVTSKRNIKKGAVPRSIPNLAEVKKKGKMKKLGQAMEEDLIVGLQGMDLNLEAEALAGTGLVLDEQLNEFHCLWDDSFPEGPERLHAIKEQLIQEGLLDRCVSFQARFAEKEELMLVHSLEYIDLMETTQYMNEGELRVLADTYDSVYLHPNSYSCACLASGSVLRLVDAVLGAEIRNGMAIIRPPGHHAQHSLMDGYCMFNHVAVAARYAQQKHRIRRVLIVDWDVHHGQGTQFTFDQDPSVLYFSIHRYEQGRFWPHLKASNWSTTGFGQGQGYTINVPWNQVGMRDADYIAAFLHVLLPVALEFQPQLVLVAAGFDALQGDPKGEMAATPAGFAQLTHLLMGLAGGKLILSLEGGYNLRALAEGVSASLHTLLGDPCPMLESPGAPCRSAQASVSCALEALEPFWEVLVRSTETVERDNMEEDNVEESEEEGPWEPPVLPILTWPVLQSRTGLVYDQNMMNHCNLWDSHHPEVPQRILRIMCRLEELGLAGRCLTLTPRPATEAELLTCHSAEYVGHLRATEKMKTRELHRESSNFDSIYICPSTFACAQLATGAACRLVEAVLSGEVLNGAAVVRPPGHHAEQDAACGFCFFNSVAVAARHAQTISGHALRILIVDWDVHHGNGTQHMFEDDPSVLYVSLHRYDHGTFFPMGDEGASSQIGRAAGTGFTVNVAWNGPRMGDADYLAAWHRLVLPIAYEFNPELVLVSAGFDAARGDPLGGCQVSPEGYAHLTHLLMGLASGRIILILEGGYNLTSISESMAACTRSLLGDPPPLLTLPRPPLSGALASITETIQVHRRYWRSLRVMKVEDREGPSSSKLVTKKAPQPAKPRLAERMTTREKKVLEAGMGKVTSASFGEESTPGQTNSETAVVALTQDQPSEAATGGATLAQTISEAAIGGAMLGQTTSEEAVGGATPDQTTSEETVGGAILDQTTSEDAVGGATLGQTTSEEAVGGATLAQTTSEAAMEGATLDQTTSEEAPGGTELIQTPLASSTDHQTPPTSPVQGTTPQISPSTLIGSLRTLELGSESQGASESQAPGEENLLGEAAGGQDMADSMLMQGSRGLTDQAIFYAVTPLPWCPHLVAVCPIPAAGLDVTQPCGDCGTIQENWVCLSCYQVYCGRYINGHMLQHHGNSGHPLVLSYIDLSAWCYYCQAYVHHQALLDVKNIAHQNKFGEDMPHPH
# [23] = tested on: A549; assay: Cytotoxicity against human A549 cells assessed as inhibition of cell growth by MTT assay; assay type: functional, cell-based
# [24] = tested on: LNCaP; assay: Cytotoxicity against human LNCaP cells assessed as inhibition of cell growth by MTT assay; assay type: functional, cell-based
# [25] = tested on: SW-620; assay: Cytotoxicity against human SW620 cells assessed as inhibition of cell growth by MTT assay; assay type: functional, cell-based
# [26] = tested on: HT-29; assay: Cytotoxicity against human HT-29 cells assessed as inhibition of cell growth by MTT assay; assay type: functional, cell-based
# [27] = biological target: cGMP-specific 3',5'-cyclic phosphodiesterase (Homo sapiens, UniProt O76074); assay: Inhibition of PDE5 (unknown origin)
# [28] = tested on: K562; assay: Cytotoxicity against human K562 cells assessed as inhibition of cell growth by MTT assay; assay type: functional, cell-based
# [29] = biological target: Histone deacetylase; assay: Inhibition of HDAC (unknown origin); assay type: protein assay, Homo sapiens
# [30] = tested on: SUP-T1; assay: Cytotoxicity against human SUP-T1 cells assessed as inhibition of cell growth by MTT assay; assay type: functional, cell-based
# [31] = tested on: T47D; assay: Cytotoxicity against human T47D cells assessed as inhibition of cell growth by MTT assay; assay type: functional, cell-based
# [32] = tested on: PC-3; assay: Cytotoxicity against human PC-3 cells assessed as inhibition of cell growth by MTT assay; assay type: functional, cell-based
# [33] = tested on: AGS; assay: Cytotoxicity against human AGS cells assessed as inhibition of cell growth by MTT assay; assay type: functional, cell-based
# [34] = tested on: MOLT-4; assay: Cytotoxicity against human MOLT-4 cells assessed as inhibition of cell growth by MTT assay; assay type: functional, cell-based
# [35] = tested on: HCT-116; assay: Cytotoxicity against human HCT-116 cells assessed as inhibition of cell growth by MTT assay; assay type: functional, cell-based
# [36] = biological target: Histone deacetylase 3 (Homo sapiens, UniProt O15379); assay: Inhibition of HDAC3 (unknown origin)
# [37] = tested on: HL-60; assay: Antiproliferative activity against human HL-60 cells assessed as inhibition of cell growth by MTT assay; assay type: functional, cell-based
# [38] = Cytotoxicity against human HuT 102 cells assessed as inhibition of cell growth by MTT assay; assay type: functional, cell-based
# [39] = tested on: A549; assay: Antitumor activity against human A549 cells xenografted in mouse assessed as inhibition of tumor growth at 30 mg/kg, ip relative to control; assay type: functional
# [40] = tested on: U-251; assay: Cytotoxicity against human U-251 cells assessed as inhibition of cell growth by MTT assay; assay type: functional, cell-based
# [41] = Cytotoxicity against human U87 cells assessed as inhibition of cell growth by MTT assay; assay type: functional, cell-based, U-87MG ATCC; conditions: U-87 MG
# [42] = tested on: T98G; assay: Cytotoxicity against human T98G cells assessed as inhibition of cell growth by MTT assay; assay type: functional, cell-based
# Chain of Histone deacetylase 1 (Q13547 whole entry): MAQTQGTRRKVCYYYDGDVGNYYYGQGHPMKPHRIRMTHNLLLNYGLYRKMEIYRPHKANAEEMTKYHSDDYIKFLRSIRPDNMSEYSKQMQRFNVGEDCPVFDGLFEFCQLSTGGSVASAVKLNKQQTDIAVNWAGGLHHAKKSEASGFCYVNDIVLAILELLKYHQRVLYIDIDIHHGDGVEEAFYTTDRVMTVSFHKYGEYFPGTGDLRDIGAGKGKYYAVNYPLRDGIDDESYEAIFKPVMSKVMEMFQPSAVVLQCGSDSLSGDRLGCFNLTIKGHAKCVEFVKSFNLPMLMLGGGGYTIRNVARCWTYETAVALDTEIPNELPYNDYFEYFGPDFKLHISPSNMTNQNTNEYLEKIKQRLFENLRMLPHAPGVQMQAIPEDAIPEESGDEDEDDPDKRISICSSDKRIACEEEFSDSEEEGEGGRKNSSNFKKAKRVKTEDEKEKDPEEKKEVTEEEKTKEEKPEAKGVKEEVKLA
# Chain of Histone deacetylase 8 (Q9BY41 whole entry): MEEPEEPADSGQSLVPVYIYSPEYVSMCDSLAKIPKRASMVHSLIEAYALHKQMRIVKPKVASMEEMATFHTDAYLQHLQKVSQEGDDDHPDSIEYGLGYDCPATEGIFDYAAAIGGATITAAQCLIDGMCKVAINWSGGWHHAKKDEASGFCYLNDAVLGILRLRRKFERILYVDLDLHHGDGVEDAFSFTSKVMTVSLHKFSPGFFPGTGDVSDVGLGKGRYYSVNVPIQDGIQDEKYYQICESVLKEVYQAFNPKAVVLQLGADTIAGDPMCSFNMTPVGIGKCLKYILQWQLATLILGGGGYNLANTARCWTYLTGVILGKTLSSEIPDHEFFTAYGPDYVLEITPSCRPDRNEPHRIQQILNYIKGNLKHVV
# Chain of Histone deacetylase 3 (O15379 whole entry): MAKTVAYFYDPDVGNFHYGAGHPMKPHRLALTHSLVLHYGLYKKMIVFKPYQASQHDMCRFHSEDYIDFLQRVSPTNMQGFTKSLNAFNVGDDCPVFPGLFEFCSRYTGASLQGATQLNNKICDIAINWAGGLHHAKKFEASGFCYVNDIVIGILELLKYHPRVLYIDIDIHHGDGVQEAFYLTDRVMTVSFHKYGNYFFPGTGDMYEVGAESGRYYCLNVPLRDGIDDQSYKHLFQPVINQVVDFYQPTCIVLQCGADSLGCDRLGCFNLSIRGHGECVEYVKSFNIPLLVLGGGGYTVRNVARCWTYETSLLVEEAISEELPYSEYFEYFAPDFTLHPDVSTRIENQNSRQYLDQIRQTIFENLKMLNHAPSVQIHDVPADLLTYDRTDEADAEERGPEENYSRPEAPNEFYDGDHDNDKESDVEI
# Chain of Histone deacetylase 2 (Q92769 whole entry): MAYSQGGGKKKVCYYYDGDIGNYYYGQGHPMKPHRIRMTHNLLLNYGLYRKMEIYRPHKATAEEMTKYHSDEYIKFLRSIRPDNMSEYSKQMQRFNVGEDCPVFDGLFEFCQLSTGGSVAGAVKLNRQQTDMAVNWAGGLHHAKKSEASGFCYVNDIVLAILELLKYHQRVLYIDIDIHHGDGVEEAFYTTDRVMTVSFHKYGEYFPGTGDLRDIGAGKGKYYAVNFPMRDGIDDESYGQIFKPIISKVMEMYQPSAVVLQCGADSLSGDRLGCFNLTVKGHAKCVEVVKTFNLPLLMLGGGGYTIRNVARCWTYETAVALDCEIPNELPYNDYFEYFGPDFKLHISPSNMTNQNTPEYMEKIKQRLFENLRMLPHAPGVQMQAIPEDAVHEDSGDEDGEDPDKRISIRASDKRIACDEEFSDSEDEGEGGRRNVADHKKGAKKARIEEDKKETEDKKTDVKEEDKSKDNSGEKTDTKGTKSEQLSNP
smiles,measurement,setting,value
O=C(CCCCCC(=O)N(Cc1ccc(Br)s1)c1ccc(OCCN2CCOCC2)cc1)NO,IC50,[1],0.00114 µM
same,IC50,[2],> 100 µM
same,selectivity ratio,[3],> 16.2
same,selectivity ratio,[4],> 16.2
same,IC50,[5],> 100 µM
same,IC50,[6],0.00114 µM
same,selectivity ratio,[7],> 16.2
same,selectivity ratio,[8],> 16.2
same,Ratio IC50,[9],3.7
same,IC50,[10],0.00114 µM
same,IC50,[11],0.62 µM
same,selectivity ratio,[12],> 16.2
same,Ratio IC50,[13],3.7
same,Activity,[14],93%
same,selectivity ratio,[15],> 16.2
same,IC50,[16],> 100 µM
same,Ratio IC50,[17],3.7
same,selectivity ratio,[18],> 16.2
same,IC50,[19],0.62 µM
same,selectivity ratio,[20],> 16.2
same,selectivity ratio,[21],> 16.2
same,IC50,[22],0.00114 µM
same,IC50,[23],0.62 µM
O=C(CCCCCN1CCN2[C@H](Cc3c([nH]c4ccccc34)[C@H]2c2ccc(Br)cc2)C1)NO,IC50,[24],1.5 µM
same,IC50,[25],1.5 µM
same,IC50,[26],1.5 µM
same,IC50,[27],0.0463 µM
same,IC50,[28],1.5 µM
same,IC50,[29],0.0145 µM
same,IC50,[30],1.5 µM
same,IC50,[31],1.5 µM
same,IC50,[32],1.5 µM
same,IC50,[33],1.5 µM
same,IC50,[34],1.5 µM
same,IC50,[35],1.5 µM
O=C(/C=C/c1ccc(S(=O)(=O)Nc2cc(F)cc(F)c2)cc1)NO,IC50,[6],0.0052 µM
same,IC50,[36],0.0052 µM
same,IC50,[37],0.77 µM
same,IC50,[38],0.77 µM
same,IC50,[22],0.0052 µM
same,inhibition in vivo at 30 mg/kg,[39],41.5%
O=C(CCCCCNC(=O)c1cc(O)c2c(c1)C(=O)c1cccc(O)c1C2=O)NO,IC50,[40],5.5 µM
same,IC50,[41],5.5 µM
same,IC50,[42],5.5 µM
